Measurements from patent US7067653B2, “Porphyrin Based neuton capture agents for cancer therapy” (The Regents of the University of California, priority 2000, dated 2006).

Key:
U-373 MG cells = assay: Dark toxicity assay in human glioblastoma U-373 MG cells; format: cell-based; conditions: exposure for 24 hours
Method: (§1) In vitro studies using rat 9L gliosarcoma cells, mouse B16 melanoma cells and human U-373MG glioblastoma cells have been performed.
(§2) Human glioblastoma U373 MG and mouse melanoma B16 cells were obtained from ATCC. The rat gliosarcoma line was kindly provided by the UCSF Brain Tumor Research Group. All cells were maintained in log phase monolayer cultures with RPMI 1640 supplemented with 10% fetal bovine and 2 mM glutamine.
(§3) Cells were seeded in 96-well culture plates, allowed to settle and attach for 24–48 hours, and then triplicate wells were exposed to two fold serial dilutions of test compounds at concentrations up to 250 μM. Compounds 4, 6, 10, and the Zn(II) complex of 10 in crystalline form were carefully weighed and dissolved in 100% DMSO to prepare stock solutions; subsequent dilutions were done directly into the culture medium just prior to administration to cells. After short term (2 hours) or long term (24–48 hours) exposure, cells were washed and wells refilled with fresh culture medium. For dark toxicity trials cells were allowed to proliferate for an additional 48–72 hours. For phototoxicity trials, washed cells were irradiated for 10 minutes with broad spectrum (600–700 nm) red light and then returned to an incubator for 48–72 hours.

9L cells = assay: Dark toxicity assay in rat 9L gliosarcoma cells; format: cell-based; conditions: exposure for 24 hours
Method: as §1, §2, §3

tumor = conditions: drugs currently in BNCT clinical trials; cited from earlier work
Rat 9L tumor cells = assay: Intracellular localization by confocal fluorescence microscopy, 9L cells; format: cell-based; conditions: 2 μM, 6 or 24 hours
Method: (§4) Confocal fluorescence microscopy was used to examine the intracellular localization of nido-carboranylporphyrin 4 in live cells. Rat 9L tumor cells and human normal keratinocyte line HaCaT were used in these studies. HaCaT cells were included in these particular experiments because they adhere and spread nicely on glass cover slips, thus facilitating the imaging process. Cells exposed to 2 μM concentration of porphyrin 4 for either 6 or 24 hours were examined at a magnification of 200× for intracellular fluorescence using excitation/emission wavelengths optimized for this type of compound. […] In both cases, 100% of the cells were labeled and the cells exposed to drug for 24 hours were slightly brighter than those exposed for 6 hours. […] No fluorescent signal was detectable in the plasma membranes of isolated individual cells nor in the intercellular junctions of confluent cells.

[1] = test system: 9L, U-373 MG and B16 cells; assay: Phototoxicity assay, broad spectrum (600–700 nm) red light; format: cell-based; conditions: irradiation with broad spectrum light 10 minutes
Method: as §2, §3
As observed for the dark toxicity experiments, the corresponding Zn(II) complex […] was about 20-fold less phototoxic. […] As with dark toxicity, B16 cells were more resistant that the other two cell types.

[2] = test system: human normal keratinocyte line HaCaT; assay: Intracellular localization by confocal fluorescence microscopy, HaCaT cells; format: cell-based; conditions: 2 μM, 6 or 24 hours
Method: as §4

Compound: meso-tetra[3-(1-methyl-nido-carboranyl)methylphenyl]porphyrin tetrapotassium salt [Compound 10]
- IC50 (U-373 MG cells): ~150 µM
- IC50 (9L cells): ~150 µM

Compound: disodium mercapto-closo-dodecaborate [BSH]
- tumor selectivity compared with the carboranylporphyrins (tumor to normal brain ratio) (tumor): lower selectivities

Compound: N[C@@H](Cc1ccc(B(O)O)cc1)C(=O)O [BPA, L-4-dihydroxy-borylphenylalanine]
- tumor selectivity compared with the carboranylporphyrins (tumor to normal brain ratio) (tumor): lower selectivities

Compound: meso-tetra[4-(1-methyl-nido-carboranyl)methylphenyl]porphyrin tetrapotassium salt [Compound 4]
- cells labeled (Rat 9L tumor cells; 9L cells): 100%
- intracellular localization (fluorescence) (Rat 9L tumor cells; live 9L cells): predominantly perinuclear
- IC50 ([1]; 2 hours exposure): 50 µM
- IC50 ([1]; 24 hours exposure): 1.5 µM
- IC50 (U-373 MG cells): ~150 µM
- IC50 (9L cells): ~150 µM
- cells labeled ([2]; HaCaT cells): 100%
- intracellular localization (fluorescence) ([2]; live HaCaT cells): predominantly perinuclear
